Structures can show the parent of a compound that is named as a salt. Where two headings read alike, the source gives them in different places.
How the values were obtained:
[1] = test system: mouse primary DRG neurons; experiment: Neurite outgrowth assay of DRG neurons (image-based HCS) against paclitaxel-induced neurotoxicity; format: cell-based; conditions: for activation at 1 µM: Mus musculus, DRG neuron
Procedure: All these 19 compounds were then subjected to the neurite outgrowth assay of dorsal root ganglion (DRG) neurons paired with an image-based HCS to analyze whether they had neuroprotective potential. Quantification of neurite outgrowth under different regimens is shown in Figure 3, wherein DRG neurons incubated in 50 nM paclitaxel could cause 60% reduction in neurite outgrowth compared to the control (no drug treatment). […] Taken together, CN016 is selected as a promising lead for further development.
Primary cortical or DRG cells were fixed with 4% paraformaldehyde for 15 min following compound and paclitaxel treatment. After washing with PBS, the fixed cells were permeabilized with PBS containing 0.05% Triton X-100 for 20 min and then blocked with commercial blocking buffer (#GTX30963; GeneTex, USA) at room temperature for 1 h. Subsequently, the cortical cells were stained for the extending processes and synaptic puncta by using anti-MAP2 (#MBS502140, 1:500; Mybiosource, USA) and anti-synaptophysin (#ab32127, 1:500; Abcam, UK) overnight. DRG cells were stained for the neurite and neuron nucleus by using anti-β III tubulin (#D71G9, 1:600; Cell Signaling, USA) and anti-NeuN monoclonal antibody (#MAB377, 1:400; Millipore, USA) overnight. On the second day, the samples were washed for 30 min with wash buffer and incubated with secondary antibodies (Alexa-488, 647 1:600; Thermo Fisher, USA) and 4 μg/mL Hoechst 33258 (#94403-1ML, 1:100; Merck, USA) at room temperature for 1 h. In the initial experiments of screening the potential neuroprotective compound for CIPN, ImageXpress^Micro (IXM) high-content imaging system (Molecular Devices, USA) driven by MetaXpress software was used. Images of treated cells were automatically acquired by using a 10× objective. Twenty-one images per well were taken in each of three channels (DAPI, FITC, and Cy5) to create a whole view of the entire neural network. The integrity of the neural network was evaluated using TIF images by importing them into MetaXpress software for analysis using the module for multiparameter, such as Neurite Outgrowth, Cell Scoring, and Transfluor. Furthermore, the score of synaptogenesis was analyzed in AcuityXpress software (Molecular Devices, USA).

[2] = test system: proinflammatory cytokines and chemokines; experiment: Systemic mouse cytokine and chemokine detection; format: in vivo; conditions: pretreatment; day 14 after first paclitaxel injection
Procedure: Samples were obtained from C57BL/6J female mice before and 14 days after the first course of treatment. The blood samples were obtained from the submandibular vein and then centrifuged at 3000 rpm for 15 min at 4 °C to yield plasma. Mouse cytokines/chemokines were quantified using Magnetic Bead 32-Multiplex Panel (Millipore, MCYTMAG-70K-PX32). Statistical significance was analyzed using two-way ANOVA, with p < 0.05 considered significant.

[3] = target: T1, CYP 2D6 (Homo sapiens, UniProt P10635); experiment: Cytochrome P450 testing, CYP 2D6; format: in vitro ADME; conditions: dextromethorphan O-demethylation; read-out: Concentration of inhibition (IC50), CYP 2D6
T1 construct: host or cells: baculovirus-infected insect cells (supersomes)
T1 sequence (P10635 whole entry): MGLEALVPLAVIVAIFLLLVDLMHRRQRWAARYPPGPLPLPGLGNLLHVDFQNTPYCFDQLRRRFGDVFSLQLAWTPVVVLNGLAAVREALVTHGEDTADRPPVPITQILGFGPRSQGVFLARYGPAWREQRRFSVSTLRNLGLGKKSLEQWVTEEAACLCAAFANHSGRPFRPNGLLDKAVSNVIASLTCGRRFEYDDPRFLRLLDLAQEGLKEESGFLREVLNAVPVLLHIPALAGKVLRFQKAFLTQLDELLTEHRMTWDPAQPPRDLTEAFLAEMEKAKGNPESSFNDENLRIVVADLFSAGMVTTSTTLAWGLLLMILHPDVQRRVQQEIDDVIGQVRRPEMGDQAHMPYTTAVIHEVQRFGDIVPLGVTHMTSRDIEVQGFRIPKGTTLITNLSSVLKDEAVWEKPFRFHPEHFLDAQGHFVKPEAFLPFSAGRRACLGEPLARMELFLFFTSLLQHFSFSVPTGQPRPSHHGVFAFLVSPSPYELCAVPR
From the text: (§1) Cytochrome P450 testing of CN016
(§2) The effects of CN016 on the activity of six specific human liver cytochrome P450 isozymes (CYP 1A2, 2C9, 2C19, 2D6, 2E1, 3A4) expressed in baculovirus-infected insect cell supersomes were studied. The reactions used to measure the activity of these enzymes were phenacetin O-deethylation (1A2), diclofenac 4-hydroxylation (2C9), mephenytoin 4-hydroxylation (2C19), dextromethorphan O-demethylation (2D6), chlorzoxazone 6-hydroxylation (2E1) and testosterone 6-hydroxylation (3A4).
(§3) Furafylline, sulfaphenazole, tranylcypromine, quinidine, diethyldithiocarbamate and azamulin were used as reference inhibitors of these enzymes. Incubation mixtures containing no CN016 or reference inhibitors were used as controls. The tested result […]
(§4) Table S4. Result of Cytochrome P450 testing of CN016

[4] = target: T2, CYP 2E1 (Homo sapiens, UniProt P05181); experiment: Cytochrome P450 testing, CYP 2E1; format: in vitro ADME; conditions: chlorzoxazone 6-hydroxylation; read-out: Concentration of inhibition (IC50), CYP 2E1
T2 construct: host or cells: baculovirus-infected insect cells (supersomes)
T2 sequence (P05181 whole entry): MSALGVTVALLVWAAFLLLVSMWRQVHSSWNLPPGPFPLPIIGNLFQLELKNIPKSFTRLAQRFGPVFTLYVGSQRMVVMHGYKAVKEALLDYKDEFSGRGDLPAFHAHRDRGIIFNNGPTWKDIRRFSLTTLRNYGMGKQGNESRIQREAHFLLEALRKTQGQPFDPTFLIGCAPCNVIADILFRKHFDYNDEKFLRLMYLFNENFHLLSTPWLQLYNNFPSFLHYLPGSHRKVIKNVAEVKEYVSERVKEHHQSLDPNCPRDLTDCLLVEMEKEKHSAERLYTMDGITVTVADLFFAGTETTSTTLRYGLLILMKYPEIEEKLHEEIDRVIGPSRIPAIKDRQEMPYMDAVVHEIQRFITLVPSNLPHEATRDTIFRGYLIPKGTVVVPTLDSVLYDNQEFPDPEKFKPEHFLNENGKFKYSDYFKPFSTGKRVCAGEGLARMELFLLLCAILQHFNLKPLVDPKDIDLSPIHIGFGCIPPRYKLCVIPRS
From the text: as §1, §2, §3, §4

[5] = target: Adrenergic α1B (Homo sapiens, UniProt P35368); experiment: LeadProfilingScreen: Adrenergic α1B; format: binding
Adrenergic α1B, sequence (P35368 whole entry): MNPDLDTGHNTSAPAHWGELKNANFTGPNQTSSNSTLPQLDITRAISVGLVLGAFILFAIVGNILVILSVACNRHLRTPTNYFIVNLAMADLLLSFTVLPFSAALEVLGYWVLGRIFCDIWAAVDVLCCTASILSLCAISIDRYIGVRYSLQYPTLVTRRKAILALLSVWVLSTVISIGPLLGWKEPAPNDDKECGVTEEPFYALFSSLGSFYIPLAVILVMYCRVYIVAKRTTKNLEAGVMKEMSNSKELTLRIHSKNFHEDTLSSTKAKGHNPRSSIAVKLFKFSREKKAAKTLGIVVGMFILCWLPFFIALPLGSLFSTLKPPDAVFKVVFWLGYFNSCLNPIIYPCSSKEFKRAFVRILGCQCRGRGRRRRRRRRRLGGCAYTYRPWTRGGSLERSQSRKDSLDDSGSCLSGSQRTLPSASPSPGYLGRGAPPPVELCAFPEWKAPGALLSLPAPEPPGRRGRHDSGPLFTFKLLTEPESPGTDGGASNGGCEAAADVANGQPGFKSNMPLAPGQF

[6] = target: Adrenergic α2A (Homo sapiens, UniProt P08913); experiment: LeadProfilingScreen: Adrenergic α2A; format: binding
Adrenergic α2A, sequence (P08913 whole entry): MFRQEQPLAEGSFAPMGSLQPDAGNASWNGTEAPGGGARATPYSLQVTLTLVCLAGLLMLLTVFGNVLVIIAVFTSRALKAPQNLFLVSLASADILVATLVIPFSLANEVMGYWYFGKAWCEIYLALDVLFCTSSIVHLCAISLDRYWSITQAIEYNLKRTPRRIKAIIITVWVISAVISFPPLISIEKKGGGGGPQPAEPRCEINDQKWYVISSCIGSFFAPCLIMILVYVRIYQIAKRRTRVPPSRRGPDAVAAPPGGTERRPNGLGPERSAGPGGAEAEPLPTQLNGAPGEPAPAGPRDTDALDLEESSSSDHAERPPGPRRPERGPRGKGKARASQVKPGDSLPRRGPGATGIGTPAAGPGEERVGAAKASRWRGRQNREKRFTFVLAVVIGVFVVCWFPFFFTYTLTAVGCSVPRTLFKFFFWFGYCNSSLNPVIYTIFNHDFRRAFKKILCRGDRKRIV

[7] = target: Endothelin ETB (Homo sapiens, UniProt P24530); experiment: LeadProfilingScreen: Endothelin ETB; format: binding
Endothelin ETB, sequence (P24530 27-442): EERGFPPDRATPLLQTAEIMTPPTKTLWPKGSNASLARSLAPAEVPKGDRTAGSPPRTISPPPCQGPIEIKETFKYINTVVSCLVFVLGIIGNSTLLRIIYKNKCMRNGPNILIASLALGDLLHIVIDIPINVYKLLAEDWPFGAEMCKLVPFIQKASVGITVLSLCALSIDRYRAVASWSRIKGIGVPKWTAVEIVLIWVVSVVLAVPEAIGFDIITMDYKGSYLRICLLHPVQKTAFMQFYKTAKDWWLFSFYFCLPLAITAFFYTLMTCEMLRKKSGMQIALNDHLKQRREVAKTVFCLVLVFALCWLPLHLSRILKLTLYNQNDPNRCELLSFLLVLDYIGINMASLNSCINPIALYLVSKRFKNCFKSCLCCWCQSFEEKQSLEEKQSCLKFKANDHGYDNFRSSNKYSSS

[8] = target: GABAB1A (Homo sapiens, UniProt Q9UBS5); experiment: LeadProfilingScreen: GABAB1A; format: binding
[9] = target: Histamine H2 (Homo sapiens, UniProt P25021); experiment: LeadProfilingScreen: Histamine H2; format: binding
Histamine H2, sequence (P25021 whole entry): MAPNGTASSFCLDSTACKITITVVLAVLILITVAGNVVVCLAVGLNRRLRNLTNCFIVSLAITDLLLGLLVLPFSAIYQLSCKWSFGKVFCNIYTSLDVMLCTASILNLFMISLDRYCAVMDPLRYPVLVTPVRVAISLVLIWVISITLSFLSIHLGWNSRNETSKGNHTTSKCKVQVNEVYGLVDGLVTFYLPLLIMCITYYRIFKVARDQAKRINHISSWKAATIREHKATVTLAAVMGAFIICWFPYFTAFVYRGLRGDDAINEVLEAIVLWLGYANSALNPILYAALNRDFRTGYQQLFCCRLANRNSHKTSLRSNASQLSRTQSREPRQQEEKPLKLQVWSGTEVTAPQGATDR

[10] = target: Neuropeptide Y Y1 (Homo sapiens, UniProt P25929); experiment: LeadProfilingScreen: Neuropeptide Y Y1; format: binding
Neuropeptide Y Y1, sequence (P25929 whole entry): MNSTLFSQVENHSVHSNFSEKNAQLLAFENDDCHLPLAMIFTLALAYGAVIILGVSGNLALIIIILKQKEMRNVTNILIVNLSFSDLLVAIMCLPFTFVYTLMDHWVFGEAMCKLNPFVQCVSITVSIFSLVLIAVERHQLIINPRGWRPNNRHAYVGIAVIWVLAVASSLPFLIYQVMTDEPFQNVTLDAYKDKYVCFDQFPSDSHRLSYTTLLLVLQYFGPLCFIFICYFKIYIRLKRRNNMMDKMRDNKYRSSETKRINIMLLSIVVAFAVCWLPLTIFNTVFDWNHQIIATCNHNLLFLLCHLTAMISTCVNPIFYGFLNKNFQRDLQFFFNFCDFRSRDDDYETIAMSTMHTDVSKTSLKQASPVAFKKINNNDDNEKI

[11] = target: Prostanoid EP4 (Homo sapiens, UniProt P35408); experiment: LeadProfilingScreen: Prostanoid EP4; format: binding
Prostanoid EP4, sequence (P35408 whole entry): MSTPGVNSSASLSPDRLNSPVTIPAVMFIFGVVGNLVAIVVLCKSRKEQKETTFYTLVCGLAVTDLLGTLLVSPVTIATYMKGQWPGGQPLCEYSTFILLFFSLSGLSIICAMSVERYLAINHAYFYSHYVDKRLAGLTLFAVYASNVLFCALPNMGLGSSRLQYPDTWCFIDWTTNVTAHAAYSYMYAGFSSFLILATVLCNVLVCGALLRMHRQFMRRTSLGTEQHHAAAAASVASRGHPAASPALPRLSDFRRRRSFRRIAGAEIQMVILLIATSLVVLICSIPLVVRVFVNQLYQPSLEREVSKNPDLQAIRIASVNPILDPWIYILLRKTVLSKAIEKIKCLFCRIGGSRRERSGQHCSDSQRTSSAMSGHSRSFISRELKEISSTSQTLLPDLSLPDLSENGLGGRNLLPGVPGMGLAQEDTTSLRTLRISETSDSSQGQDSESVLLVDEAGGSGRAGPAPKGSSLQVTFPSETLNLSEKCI

[12] = target: Serotonin (5-Hydroxytryptamine) 5-HT2B (Homo sapiens, UniProt P41595); experiment: LeadProfilingScreen: Serotonin 5-HT2B; format: binding; conditions: read-out: Inhibition (%), Serotonin (5-Hydroxytryptamine) 5-HT2B
Serotonin (5-Hydroxytryptamine) 5-HT2B, sequence (P41595 whole entry): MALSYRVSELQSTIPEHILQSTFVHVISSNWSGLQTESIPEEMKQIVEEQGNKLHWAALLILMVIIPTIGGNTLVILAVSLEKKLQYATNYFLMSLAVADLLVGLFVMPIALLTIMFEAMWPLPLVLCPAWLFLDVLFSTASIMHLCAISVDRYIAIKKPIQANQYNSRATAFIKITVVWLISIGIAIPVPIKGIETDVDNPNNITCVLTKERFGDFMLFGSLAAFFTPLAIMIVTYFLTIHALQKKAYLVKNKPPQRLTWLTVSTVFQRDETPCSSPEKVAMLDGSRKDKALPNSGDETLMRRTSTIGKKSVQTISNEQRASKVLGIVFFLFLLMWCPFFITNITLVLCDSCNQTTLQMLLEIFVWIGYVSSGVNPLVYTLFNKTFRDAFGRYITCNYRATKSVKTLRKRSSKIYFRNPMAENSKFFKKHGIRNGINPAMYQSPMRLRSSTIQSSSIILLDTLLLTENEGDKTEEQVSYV
From the text: LeadProfilingScreen (Total # of Assays: 67)
To evaluate, in LeadProfilingScreen, the activity of test compound CN168 (Panlabs # 1251879). […]
Summary of Significant Results
Biochemical assay results are presented as the percent inhibition of specific binding or activity throughout the report.
All other results are expressed in terms of that assay's quantitation method.
• For primary assays, only the lowest concentration with a significant response judged by the assays' criteria, is […]
• Where applicable, either the secondary assay results with the lowest dose/concentration meeting the significance […]
• Unless otherwise requested, primary screening in duplicate with quantitative data (e.g., IC50 ± SEM, Ki ± SEM and nH) are shown where applicable for individual requested assays. In screening packages, primary screening in duplicate with semi-quantitative data (e.g., estimated IC50, Ki and nH) are shown where applicable (concentration range of 4 log units); available secondary functional assays are carried out ([…]) and MEC or MIC determined only if active in primary assays >50% at 1 log unit below initial test concentration. […]

[13] = target: Transporter, Serotonin (5-Hydroxytryptamine) (SERT) (Homo sapiens, UniProt P31645); experiment: LeadProfilingScreen: Transporter, Serotonin (SERT); format: binding
Transporter, Serotonin (5-Hydroxytryptamine) (SERT), sequence (P31645 whole entry): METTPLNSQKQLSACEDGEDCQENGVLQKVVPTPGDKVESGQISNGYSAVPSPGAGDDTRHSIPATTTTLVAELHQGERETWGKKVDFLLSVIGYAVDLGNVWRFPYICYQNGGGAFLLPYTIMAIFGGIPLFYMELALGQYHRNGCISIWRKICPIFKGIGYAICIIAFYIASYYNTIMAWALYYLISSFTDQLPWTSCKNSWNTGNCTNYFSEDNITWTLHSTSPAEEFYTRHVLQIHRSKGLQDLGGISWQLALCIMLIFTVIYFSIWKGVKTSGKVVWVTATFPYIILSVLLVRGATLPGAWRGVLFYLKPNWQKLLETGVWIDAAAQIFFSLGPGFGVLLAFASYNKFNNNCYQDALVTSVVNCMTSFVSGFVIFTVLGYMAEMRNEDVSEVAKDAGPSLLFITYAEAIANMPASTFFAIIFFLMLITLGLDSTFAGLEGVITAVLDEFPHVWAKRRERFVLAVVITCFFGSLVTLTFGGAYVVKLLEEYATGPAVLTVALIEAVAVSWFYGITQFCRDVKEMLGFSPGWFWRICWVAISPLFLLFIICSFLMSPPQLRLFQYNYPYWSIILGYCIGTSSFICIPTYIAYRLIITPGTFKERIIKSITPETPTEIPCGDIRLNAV

In the case of `O=P(O)(O)CCN1CCC(Nc2cc(N3CCOCC3)nc(NCc3cn(CCCO)nn3)n2)CC1` [CN016, {2-[4-(2-{[1-(3-Hydroxy-propyl)-1H-[1,2,3]triazol-4-ylmethyl]-amino}-6-morpholin-4-yl-pyrimidin-4-ylamino)-piperidin-1-yl]-ethyl}-phosphonic Acid Hydrobromide Salt], the activation at 1 µM ([1]; Table 1, A: neurite outgrowth (% of control) of test compound 1000 nM + paclitaxel 50 nM, B: paclitaxel 50 nM alone, DRG neurons, read-out: Neuroprotection rate = (A-B)±S.E.M [%]) is reported as 21%, the activation at 1 µM ([1]; Table S2, test compound 1000 nM + paclitaxel 50 nM minus paclitaxel 50 nM, read-out: Neuroprotection rate = (A-B) ± S.E.M [%]) is reported as 21 ± 0.77% and the activation at 1 µM ([1]; supplementary CSV, test compound 1000 nM, read-out: A-B (A: neurite outgrowth (% of control) of test compound (1000 nM) + paclitaxel (50 nM), B: of paclitaxel (50 nM))) is reported as 21%. For the same molecule, the “in vitro effective concentration” value ([1]; neurite outgrowth assay) was 10 nM, the “protective efficacy against paclitaxel-induced neurotoxicity (in words)” value ([1]; pretreated, + 50 nM paclitaxel, DRG neurons) was “exhibited protective efficacy” and the “increase of neurite length compared to the positive control (paclitaxel-treated alone)” value ([1]; pretreated, + 50 nM paclitaxel, Figure 3B) was 24–28%. The “proinflammatory cytokines and chemokines in plasma” value [2] was “significant decrease”, the IC50 [3] was > 100 µM and the IC50 [4] was > 100 µM. It also gave an inhibition at 10 µM [5] of 14%, an inhibition at 10 µM [6] of -4% and an inhibition at 10 µM [7] of -1%. It also gave an inhibition at 10 µM [8] of 14%, an inhibition at 10 µM [9] of 0% and an inhibition at 10 µM [10] of -4%. The inhibition at 10 µM [11] was 4%, the inhibition at 10 µM [12] was 10% and the inhibition at 10 µM [13] was -4%.

From publication PMC8958505, “Discovery of Potential Neuroprotective Agents against Paclitaxel-Induced Peripheral Neuropathy” (Journal of Medicinal Chemistry, 2022)
